Molecules are shown by their SMILES. “Also recorded” adds a separate entry of the source.

In experiment [1] the test system is tumorigenic (JWF2) and non-tumorigenic (HaCaT) cells. Description: Cell viability (MTS) of tumorigenic and non-tumorigenic keratinocytes treated with 15dPMJ2. The class given is cell-based. The settings on record: 12 hours. Here is the method: Tumorigenic and non-tumorigenic keratinocytes were treated with different concentrations of 15dPMJ2, vehicle, or were untreated for 12 hours. Cell viability was detected by conducting MTS experiments. Data represent the mean±SEM of three independent experiments and are expressed as the percent of the untreated cells. *P<0.01.
(§1) To assess the in vivo antineoplastic action of 15dPMJ2, the subcutaneous mouse tumor model was utilized. Melanoma cells were subcutaneously implanted in the flank region of C57BL/6 mice and treated with 0.5 mg/kg 15dPMJ2, vehicle [0.1% DMSO in phosphate buffered saline (PBS)], or were untreated. […] To determine if 15dPMJ2 induced ER stress the expression of CHOP10 was detected in the tumor sections.

The subject of the next experiment is CHOP10. Description: CHOP10 expression (ER stress) in excised tumor sections. Type of experiment: in vivo, C57BL/6 mice. The conditions noted are these: 0.5 mg/kg for 5 days. The method, then:
as §1

Experiment [2] deals with Melanoma cells subcutaneously implanted in the flank region of C57BL/6 mice. Briefly: Subcutaneous mouse tumor model, tumor weight. The conditions noted are these: 0.5 mg/kg for 5 days; compared to vehicle and untreated animals; P<0.01. Type of experiment: in vivo. Here is the method:
Tumors grown in C57BL/6 mice were either untreated (UT), vehicle treated (VEH), or treated with 0.5 mg/kg 15dPMJ2 for 5 days. Tumor weights were determined. #P<0.01 compared to untreated; *P<0.01 compared to vehicle treated (one-way ANOVA with Tukey's post-hoc test).
as §1

For the compound `CCCCC/C=C/C=C1/C(=O)C=CC1C/C=C/CCCC(=O)NCCO` (stereo not shown) [15dPMJ2, 15-deoxy Δ^12,14-prostagladin J2-ethanolamide], the “toxicity towards tumorigenic keratinocytes relative to non-tumorigenic keratinocytes” value in experiment [1] (at 5 μM, JWF2 vs HaCaT, MTS cell viability) was found to be 4 fold. Moreover, the “selective toxicity (cell viability, tumorigenic vs non-tumorigenic keratinocytes)” value in experiment [1] (different concentrations, MTS) is recorded as “selectively toxic”. For the same compound, in the experiment on CHOP10, the “CHOP10 expression in the tumors (ER stress)” value was “markedly increased CHOP10 expression; also recorded: increases ER stress”. In experiment [2], the “tumor weight / solid tumor growth” value is “statistically significant reduction in tumor weight; also recorded: inhibits solid tumor growth”.

The values above are taken from US10960013B2, “J-series prostaglandin-ethanolamides as novel therapeutics for skin and/or oral disorders” (East Carolina University, priority 2016, dated 2021).
